In general, IC50 refers to the midpoint of a concentration-inhibition curve.

Structures are written as SMILES.

The target in the assay is T1, human GPR84 receptor (Homo sapiens, UniProt Q9NQS5).
T1 construct: frozen aliquots prepared by acCELLerate; host or cells: CHO-K1
T1 sequence (Q9NQS5 whole entry): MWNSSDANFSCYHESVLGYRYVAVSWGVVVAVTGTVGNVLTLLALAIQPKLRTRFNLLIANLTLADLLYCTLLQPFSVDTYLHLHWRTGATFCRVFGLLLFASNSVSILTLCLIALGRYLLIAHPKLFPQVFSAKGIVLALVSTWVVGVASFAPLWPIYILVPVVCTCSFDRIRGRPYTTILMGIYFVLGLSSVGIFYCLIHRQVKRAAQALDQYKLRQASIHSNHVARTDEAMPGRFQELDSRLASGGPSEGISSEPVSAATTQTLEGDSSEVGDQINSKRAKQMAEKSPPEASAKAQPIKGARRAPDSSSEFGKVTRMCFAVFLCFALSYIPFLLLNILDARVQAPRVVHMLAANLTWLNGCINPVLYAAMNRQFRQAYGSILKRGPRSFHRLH
The assay can be described thus: cAMP HTRF assay for identification of cellular GPR84 antagonists. The format is cell-based. Particulars: CHO-K1 cells stably expressing human GPR84; Forskolin + agonist 6-OAU (EC80); average or median values. In outline:
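Forskolin-stimulated CHO-K1 cells stably expressing human GPR84, agonist-suppressed cAMP measured by HTRF (665/620 ratio) after lysis. Compounds at 11 concentrations, 20 μM to 0.07 nM, duplicate; normalized to DMSO and no-agonist controls; IC50 by 4-parameter fit.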
In general terms: In TR-FRET formats the signal depends on donor and acceptor labels being close together.
As for `Cc1c(C(=O)NC[C@@H]2COCCO2)oc2c1-c1nn(C[C@H]3CCO3)cc1CC2` [Example 98, N-[(2R)-1,4-dioxan-2-ylmethyl]-8-methyl-2-[(2R)-oxetan-2-ylmethyl]-4,5-dihydro-2H-furo[2,3-g]indazole-7-carboxamide], the IC50 is 470 nM.

On to `Cc1c(C(=O)NC[C@@H]2CCCO2)oc2c1-c1nn(C[C@@H]3CCO3)cc1CC2` [Example 99, 8-methyl-2-[(2S)-oxetan-2-ylmethyl]-N-[(2S)-tetrahydrofuran-2-ylmethyl]-4,5-dihydro-2H-furo[2,3-g]indazole-7-carboxamide], for which the IC50 came to 210 nM.

`Cc1c(C(=O)NC[C@@H]2COCCO2)oc2c1-c1nn(C[C@@H]3CCO3)cc1CC2` [Example 100, N-[(2R)-1,4-dioxan-2-ylmethyl]-8-methyl-2-[(2S)-oxetan-2-ylmethyl]-4,5-dihydro-2H-furo[2,3-g]indazole-7-carboxamide]: the IC50 is 310 nM.

Consider `Cc1c(C(=O)NC[C@@H]2CCCO2)oc2c1-c1nn(C[C@H]3CN(C)CCO3)cc1CC2` [Example 101, 8-methyl-2-{[(2R)-4-methylmorpholin-2-yl]methyl}-N-[(2S)-tetrahydrofuran-2-ylmethyl]-4,5-dihydro-2H-furo[2,3-g]indazole-7-carboxamide], for which the IC50 was found to be 1540 nM.

Regarding `Cc1c(C(=O)NC[C@@H]2COCCO2)oc2c1-c1nn(C[C@H]3CN(C)CCO3)cc1CC2` [Example 102, N[(2R)-1,4-dioxan-2-ylmethyl]-8-methyl-2-{[(2R)-4-methylmorpholin-2-yl]methyl}-4,5-dihydro-2H-furo[2,3-g]indazole-7-carboxamide], the half-inhibitory concentration (IC50) turned out to be 760 nM.

Regarding `Cc1c(C(=O)NC[C@@H]2CCCO2)oc2c1-c1nn(C[C@@H]3CN(C)CCO3)cc1CC2` [Example 103, 8-methyl-2-{[(2S)-4-methylmorpholin-2-yl]methyl}-N-[(2S)-tetrahydrofuran-2-ylmethyl]-4,5-dihydro-2H-furo[2,3-g]indazole-7-carboxamide], the IC50 came out at 170 nM.

Turning to `Cc1c(C(=O)NC[C@@H]2COCCO2)oc2c1-c1nn(C[C@@H]3CN(C)CCO3)cc1CC2` [Example 104, N[(2R)-1,4-dioxan-2-ylmethyl]-8-methyl-2-{[(2S)-4-methylmorpholin-2-yl]methyl}-4,5-dihydro-2H-furo[2,3-g]indazole-7-carboxamide], the concentration for half-maximal inhibition (IC50) was 180 nM.

As to `Cc1c(C(=O)NC[C@@H]2CCCO2)oc2c1-c1nn(C[C@H]3CCCO3)cc1CC2` [Example 105, 8-methyl-2-{[(2R)-tetrahydrofuran-2-yl]methyl]-N-[(2S)-tetrahydrofuran-2-ylmethyl]-4,5-dihydro-2H-furo[2,3-g]indazole-7-carboxamide], the IC50 came out at 72 nM.

As to `Cc1c(C(=O)NC[C@@H]2COCCO2)oc2c1-c1nn(C[C@H]3CCCO3)cc1CC2` [Example 106, N[(2R)-1,4-dioxan-2-ylmethyl]-8-methyl-2-[(2R)-tetrahydrofuran-2-ylmethyl]-4,5-dihydro-2H-furo[2,3-g]indazole-7-carboxamide], the IC50 worked out at 77 nM.

Consider `Cc1c(C(=O)NC[C@@H]2CCCO2)oc2c1-c1nn(C[C@@H]3CCCO3)cc1CC2` [Example 107, 8-methyl-N,2-bis[(2S)-tetrahydrofuran-2-ylmethyl]-4,5-dihydro-2H-furo[2,3-g]indazole-7-carboxamide], for which the IC50 was determined as 35 nM.

With `Cc1c(C(=O)NC[C@@H]2COCCO2)oc2c1-c1nn(C[C@@H]3CCCO3)cc1CC2` [Example 108, N[(2R)-1,4-dioxan-2-ylmethyl]-8-methyl-2-[(2S)-tetrahydrofuran-2-ylmethyl]-4,5-dihydro-2H-furo[2,3-g]indazole-7-carboxamide], the concentration for half-maximal inhibition (IC50) amounted to 58 nM.

`Cc1c(C(=O)NC[C@@H]2CCCO2)oc2c1-c1nn(CC3CN(C(=O)OC(C)(C)C)C3)cc1CC2` [Example 109, tert-butyl 3-[(8-methyl-7-{[(2S)-tetrahydrofuran-2-ylmethyl]carbamoyl}-4,5-dihydro-2H-furo[2,3-g]indazol-2-yl)methyl]azetidine-1-carboxylate]: the IC50 amounted to 11 nM.

With `Cc1c(C(=O)NC[C@@H]2COCCO2)oc2c1-c1nn(CC3CN(C(=O)OC(C)(C)C)C3)cc1CC2` [Example 110, tert-butyl 3-[(7-{[(2R)-1,4-dioxan-2-ylmethyl]carbamoyl}-8-methyl-4,5-dihydro-2H-furo[2,3-g]indazol-2-yl)methyl]azetidine-1-carboxylate], the 50% inhibitory concentration (IC50) came to 10 nM.

As for `Cc1c(C(=O)NC[C@@H]2CCCO2)oc2c1-c1nn(C[C@H]3CCOC3)cc1CC2` [Example 111, 8-methyl-N-[(2S)-tetrahydrofuran-2-ylmethyl]-2-[(3R)-tetrahydrofuran-3-ylmethyl]-4,5-dihydro-2H-furo[2,3-g]indazole-7-carboxamide], the concentration for half-maximal inhibition (IC50) was found to be 140 nM.

Turning to `Cc1c(C(=O)NC[C@@H]2COCCO2)oc2c1-c1nn(C[C@H]3CCOC3)cc1CC2` [Example 112, N-[(2R)-1,4-dioxan-2-ylmethyl]-8-methyl-2-[(3R)-tetrahydrofuran-3-ylmethyl]-4,5-dihydro-2H-furo[2,3-g]indazole-7-carboxamide], the IC50 is 320 nM.

In the case of `Cc1c(C(=O)NC[C@@H]2CCCO2)oc2c1-c1nn(C[C@@H]3CCOC3)cc1CC2` [Example 113, 8-methyl-N-[(2S)-tetrahydrofuran-2-ylmethyl]-2-[(3S)-tetrahydrofuran-3-ylmethyl]-4,5-dihydro-2H-furo[2,3-g]indazole-7-carboxamide], the half-maximal inhibitory concentration (IC50) worked out at 91 nM.

As to `Cc1c(C(=O)NC[C@@H]2COCCO2)oc2c1-c1nn(C[C@@H]3CCOC3)cc1CC2` [Example 114, N-[(2R)-1,4-dioxan-2-ylmethyl]-8-methyl-2-[(3S)-tetrahydrofuran-3-ylmethyl]-4,5-dihydro-2H-furo[2,3-g]indazole-7-carboxamide], the IC50 turned out to be 200 nM.

Take `O=C(NC[C@@H]1CCCO1)c1oc2c(c1C(F)(F)F)-c1nn(Cc3ccccn3)cc1CC2` [Example 115, 2-(pyridin-2-ylmethyl)-N-[(2S)-tetrahydrofuran-2-ylmethyl]-8-(trifluoromethyl)-4,5-dihydro-2H-furo[2,3-g]indazole-7-carboxamide]: the half-maximal inhibitory concentration (IC50) worked out at 27 nM.

For the compound `O=C(NC[C@@H]1COCCO1)c1oc2c(c1C(F)(F)F)-c1nn(Cc3ccccn3)cc1CC2` [Example 116, N-[(2R)-1,4-dioxan-2-ylmethyl]-2-(pyridin-2-ylmethyl)-8-(trifluoromethyl)-4,5-dihydro-2H-furo[2,3-g]indazole-7-carboxamide], the IC50 was 28 nM.

`Cn1ccc(CNC(=O)c2oc3c(c2C(F)(F)F)-c2nn(Cc4ccccn4)cc2CC3)n1` [Example 117, N-[(1-methyl-1H-pyrazol-3-yl)methyl]-2-(pyridin-2-ylmethyl)-8-(trifluoromethyl)-4,5-dihydro-2H-furo[2,3-g]indazole-7-carboxamide]: the IC50 was found to be 55 nM.

Take `O=C(NCc1ncco1)c1oc2c(c1C(F)(F)F)-c1nn(Cc3ccccn3)cc1CC2` [Example 118, N-(1,3-oxazol-2-ylmethyl)-2-(pyridin-2-ylmethyl)-8-(trifluoromethyl)-4,5-dihydro-2H-furo[2,3-g]indazole-7-carboxamide]: the IC50 was 24 nM.

Regarding `O=C(NC[C@@H]1CCCO1)c1oc2c(c1C1CC1)-c1nn(Cc3ccccn3)cc1CC2` [Example 119, 8-cyclopropyl-2-(pyridin-2-ylmethyl)-N-[(2S)-tetrahydrofuran-2-ylmethyl]-4,5-dihydro-2H-furo[2,3-g]indazole-7-carboxamide], the IC50 turned out to be 28 nM.

Take `O=C(NC[C@@H]1COCCO1)c1oc2c(c1C1CC1)-c1nn(Cc3ccccn3)cc1CC2` [Example 120, 8-cyclopropyl-N-[(2R)-1,4-dioxan-2-ylmethyl]-2-(pyridin-2-ylmethyl)-4,5-dihydro-2H-furo[2,3-g]indazole-7-carboxamide]: the half-maximal inhibitory concentration (IC50) is 51 nM.

As to `Cn1ccc(CNC(=O)c2oc3c(c2C2CC2)-c2nn(Cc4ccccn4)cc2CC3)n1` [Example 121, 8-cyclopropyl-N-[(1-methyl-1H-pyrazol-3-yl)methyl]-2-(pyridin-2-ylmethyl)-4,5-dihydro-2H-furo[2,3-g]indazole-7-carboxamide], the concentration for half-maximal inhibition (IC50) turned out to be 67 nM.

On to `O=C(NCc1ncco1)c1oc2c(c1C1CC1)-c1nn(Cc3ccccn3)cc1CC2` [Example 122, 8-cyclopropyl-N-(1,3-oxazol-2-ylmethyl)-2-(pyridin-2-ylmethyl)-4,5-dihydro-2H-furo[2,3-g]indazole-7-carboxamide], for which the concentration for half-maximal inhibition (IC50) is 61 nM.

For `Cc1c(C(=O)NCc2ccn(C)n2)oc2c1-c1nn(Cc3ccccn3)cc1C1(CC1)C2` [Example 123, 8′-methyl-N-[(1-methyl-1H-pyrazol-3-yl)methyl]-2′-(pyridin-2-ylmethyl)-2′,5′-dihydrospiro[cyclopropane-1,4′-furo[2,3-g]indazole]-7′-carboxamide], the concentration for half-maximal inhibition (IC50) is 120 nM.

Take `Cc1c(C(=O)NCc2ncco2)oc2c1-c1nn(Cc3ccccn3)cc1C1(CC1)C2` [Example 124, 8′-methyl-N-(1,3-oxazol-2-ylmethyl)-2′-(pyridin-2-ylmethyl)-2′,5′-dihydrospiro[cyclopropane-1,4′-furo[2,3-g]indazole]-7′-carboxamide]: the IC50 was 180 nM.

As to `Cc1c(C(=O)NC[C@@H]2CCCO2)oc2c1-c1nn(C[C@H]3COCCO3)cc1C1(CC1)C2` [Example 125, 2′-[(2S)-1,4-dioxan-2-ylmethyl]-8′-methyl-N-[(2S)-tetrahydrofuran-2-ylmethyl]-2′,5′-dihydrospiro[cyclopropane-1,4′-furo[2,3-g]indazole]-7′-carboxamide], the IC50 came out at 51 nM.

`Cc1c(C(=O)NC[C@@H]2COCCO2)oc2c1-c1nn(C[C@H]3COCCO3)cc1C1(CC1)C2` [Example 126]: the half-maximal inhibitory concentration (IC50) stood at 39 nM.

For `Cc1c(C(=O)NCc2ccn(C)n2)oc2c1-c1nn(C[C@H]3COCCO3)cc1C1(CC1)C2` [Example 127, 2′-[(2S)-1,4-dioxan-2-ylmethyl]-8′-methyl-N-[(1-methyl-1H-pyrazol-3-yl)methyl]-2′,5′-dihydrospiro[cyclopropane-1,4′-furo[2,3-g]indazole]-7′-carboxamide], the IC50 was 170 nM.

For the origin of these results see patent publication US12570666B2, “Furoindazole derivatives” (Bayer Aktiengesellschaft, priority 2019, dated 2026).
